What was measured:
HL-60(TB) [1] = experiment: Growth inhibition of human HL-60(TB) cells assessed as cell growth at 10 uM after 48 hrs by sulforhodamine B assay; format: functional; conditions: HL-60, 48 h, read-out: Activity
NCI-H226 = experiment: Growth inhibition of human NCI-H226 cells assessed as cell growth at 10 uM after 48 hrs by sulforhodamine B assay; format: functional; conditions: NCI-H226, 48 h, read-out: Activity
CCRF-CEM = experiment: Growth inhibition of human CCRF-CEM cells assessed as cell growth at 10 uM after 48 hrs by sulforhodamine B assay; format: functional; conditions: read-out: Activity
RXF 393 = experiment: Growth inhibition of human RXF393 cells assessed as cell growth at 10 uM after 48 hrs by sulforhodamine B assay; format: functional; conditions: RXF 393, 48 h, read-out: Activity
CAKI-1 = experiment: Growth inhibition of human CAKI-1 cells assessed as cell growth at 10 uM after 48 hrs by sulforhodamine B assay; format: functional; conditions: CAKI-1, 48 h, read-out: Activity
UACC-257 = experiment: Growth inhibition of human UACC257 cells assessed as cell growth at 10 uM after 48 hrs by sulforhodamine B assay; format: functional; conditions: UACC-257, 48 h, read-out: Activity
MOLT-4 = experiment: Growth inhibition of human MOLT4 cells after 48 hrs by sulforhodamine B assay; format: functional; conditions: MOLT-4, 48 h; for CC50: read-out: LC50 (the source's name)
SK-MEL-5 = experiment: Growth inhibition of human SK-MEL-5 cells after 48 hrs by sulforhodamine B assay; format: functional; conditions: SK-MEL-5, 48 h
OVCAR-3 = experiment: Growth inhibition of human OVCAR3 cells after 48 hrs by sulforhodamine B assay; format: functional, cell-based; conditions: OVCAR-3, 48 h; for CC50: read-out: LC50 (the source's name)
RPMI-8226 = experiment: Growth inhibition of human RPMI8226 cells after 48 hrs by sulforhodamine B assay; format: functional, cell-based; conditions: RPMI-8226, 48 h; for CC50: read-out: LC50 (the source's name)
HL-60(TB) [2] = experiment: Growth inhibition of human HL-60(TB) cells after 48 hrs by sulforhodamine B assay; format: functional; conditions: HL-60, 48 h; for CC50: read-out: LC50 (the source's name)
TK-10 = experiment: Growth inhibition of human TK10 cells after 48 hrs by sulforhodamine B assay; format: functional; conditions: TK-10, 48 h; for CC50: read-out: LC50 (the source's name)
[3] = Growth inhibition of human NCI-ADR-RES cells after 48 hrs by sulforhodamine B assay; format: functional; conditions: for CC50: read-out: LC50 (the source's name)

SMILES: O=C(Nc1cccc(-n2cc(-c3ccncc3)c(-c3ccc(Cl)c(O)c3)n2)c1)c1ccccc1
- growth at 10 µM (HL-60(TB) [1]): 167%
- growth at 10 µM (NCI-H226): 89.6%
- growth at 10 µM (CCRF-CEM): 67.5%
- growth at 10 µM (RXF 393): 0.59%
- growth at 10 µM (CAKI-1): 90.3%
- growth at 10 µM (UACC-257): 44.2%

SMILES: O=C(Nc1cccc(-n2cc(-c3ccncc3)c(-c3ccc(Cl)c(O)c3)n2)c1)c1ccc(Cl)c(C(F)(F)F)c1
- growth at 10 µM (HL-60(TB) [1]): 196%
- growth at 10 µM (NCI-H226): 103%
- growth at 10 µM (CCRF-CEM): 98.8%
- growth at 10 µM (RXF 393): 104%
- growth at 10 µM (CAKI-1): 100%
- growth at 10 µM (UACC-257): 104%

SMILES: COc1cc(-c2nn(-c3cccc(NC(=O)Nc4ccccc4)c3)cc2-c2ccncc2)ccc1Cl
- growth at 10 µM (HL-60(TB) [1]): 91.3%
- growth at 10 µM (NCI-H226): 92.3%
- growth at 10 µM (CCRF-CEM): 83.3%
- growth at 10 µM (RXF 393): 72.8%
- growth at 10 µM (CAKI-1): 96.1%
- growth at 10 µM (UACC-257): 84.5%

SMILES: COc1cc(-c2nn(-c3cccc(NC(=O)c4ccccc4)c3)cc2-c2ccncc2)ccc1Cl
- GI50 (MOLT-4): 701 nM
- TGI (MOLT-4): > 100000 nM
- CC50 (MOLT-4): > 100000 nM
- GI50 (SK-MEL-5): 319 nM
- LC50 (concentration killing 50% of cells) (SK-MEL-5): 7100 nM
- TGI (SK-MEL-5): 1380 nM
- growth at 10 µM (HL-60(TB) [1]): -18.8%
- growth at 10 µM (NCI-H226): 39.1%
- growth at 10 µM (CCRF-CEM): 2.06%
- GI50 (OVCAR-3): 334 nM
- IC50 (OVCAR-3): 330 nM
- TGI (OVCAR-3): 10900 nM
- CC50 (OVCAR-3): 95800 nM
- GI50 (RPMI-8226): 850 nM
- IC50 (RPMI-8226): 850 nM
- TGI (RPMI-8226): > 100000 nM
- CC50 (RPMI-8226): > 100000 nM
- growth at 10 µM (RXF 393): -19.2%
- GI50 (HL-60(TB) [2]): 479 nM
- TGI (HL-60(TB) [2]): > 100000 nM
- CC50 (HL-60(TB) [2]): > 100000 nM
- growth at 10 µM (CAKI-1): 40.6%
- GI50 (TK-10): 7000 nM
- TGI (TK-10): > 100000 nM
- CC50 (TK-10): > 100000 nM
- GI50 [3]: 448 nM
- TGI [3]: > 100000 nM
- CC50 [3]: > 100000 nM
- growth at 10 µM (UACC-257): 8.64%

SMILES: O=C(Nc1cccc(-n2cc(-c3ccncc3)c(-c3ccc(Cl)c(O)c3)n2)c1)Nc1ccc(Cl)c(C(F)(F)F)c1
- GI50 (MOLT-4): 777 nM
- TGI (MOLT-4): 2930 nM
- CC50 (MOLT-4): > 32500 nM
- GI50 (SK-MEL-5): 550 nM
- LC50 (concentration killing 50% of cells) (SK-MEL-5): 2130 nM
- TGI (SK-MEL-5): 1080 nM
- growth at 10 µM (HL-60(TB) [1]): -11.2%
- growth at 10 µM (NCI-H226): 3.43%
- growth at 10 µM (CCRF-CEM): -13.8%
- GI50 (OVCAR-3): 830 nM
- IC50 (OVCAR-3): 830 nM
- TGI (OVCAR-3): 2090 nM
- CC50 (OVCAR-3): > 32500 nM
- GI50 (RPMI-8226): 580 nM
- IC50 (RPMI-8226): 580 nM
- TGI (RPMI-8226): 2000 nM
- CC50 (RPMI-8226): > 32500 nM
- growth at 10 µM (RXF 393): -76%
- GI50 (HL-60(TB) [2]): 1500 nM
- TGI (HL-60(TB) [2]): > 32500 nM
- CC50 (HL-60(TB) [2]): > 32500 nM
- growth at 10 µM (CAKI-1): 17.3%
- GI50 (TK-10): 1500 nM
- TGI (TK-10): 11900 nM
- CC50 (TK-10): > 32500 nM
- GI50 [3]: 844 nM
- TGI [3]: 2750 nM
- CC50 [3]: > 32500 nM
- growth at 10 µM (UACC-257): -54%

SMILES: COc1cc(-c2nn(-c3cccc(NC(=O)c4ccc(Br)c(C)c4)c3)cc2-c2ccncc2)ccc1Cl
- growth at 10 µM (HL-60(TB) [1]): 114%
- growth at 10 µM (NCI-H226): 84.7%
- growth at 10 µM (CCRF-CEM): 74.6%
- growth at 10 µM (RXF 393): 41.7%
- growth at 10 µM (CAKI-1): 86.8%
- growth at 10 µM (UACC-257): 79.5%

— ChEMBL document CHEMBL2440076, “New triarylpyrazoles as broad-spectrum anticancer agents: design, synthesis, and biological evaluation” (Eur J Med Chem, 2013)
